Measured values reported in PMC6058718, “Doxorubicin conjugated with a trastuzumab epitope and an MMP-2 sensitive peptide linker for the treatment of HER2-positive breast cancer” (Drug Delivery, 2018).
Read-outs that look alike come from different tables or passages of the source. Where a SMILES comes first, the peptide text is derived from it. Bridges are numbered along the chain shown (N, C = ends). Where no end group is shown, it is not given here. The star is where a group is joined. Glutaryl(5-(14-O-Dox)) = COc1cccc2c1C(=O)c1c(O)c3c(c(O)c1C2=O)C[C@@](O)(C(=O)COC(=O)CCCC(=O)*)C[C@@H]3O[C@H]1C[C@H](N)[C@H](O)[C@H](C)O1

What was measured:
MMP-2 = target: T1, MMP-2 (Mus musculus, UniProt P33434); assay: Enzymatic cleavage of MAHNP-DOX by MMP-2 in NIH-3T3 conditioned medium; format: in vitro ADME; details: 5 μM MAHNP-DOX in concentrated conditioned medium from NIH-3T3 cells containing active MMP-2, 37 °C, 2 h of incubation, HPLC / LC-MS/MS
T1 construct: 4 mL of the medium containing active MMP-2 (i.e. conditioned medium) was collected and concentrated; endogenous in cells; host or cells: NIH-3T3 fibroblasts; serum-free conditioned medium concentrated with a 10 K centrifugal filter
Procedure: NIH-3T3 cells that can secrete active MMP-2 (Figure S1) were cultured in serum-free medium for 24 h. Then, 4 mL of the medium containing active MMP-2 (i.e. conditioned medium) was collected and concentrated to 500 μL using Amicon Ultra-4 10 K centrifugal filter devices (Millipore, Bedford, MA, USA) (Aye et al., [2004]). Dilution of MAHNP-DOX at a concentration of 5 μM was prepared with the concentrated conditioned medium and incubated at 37 °C. Aliquots were removed at 1 h and 2 h and then analyzed by LC–MS/MS (van Duijnhoven et al., [2011]). The analysis was performed on XBridge™ C18 column (5 μm, 4.6 × 250 mm; Waters, Milford, MA, USA) at room temperature. The flow rate of HPLC was 0.3 mL/min with a mobile phase consisted of solvent A (water with 0.1% FA) and solvent B (ACN). The gradient was as follows: B 0 min (10%) → 15 min (90%) → 20 min (90%) → 25 min (10%).
The sensitivity of MAHNP-DOX to MMP-2 was studied using HPLC. To date, there has been substantial evidence indicating stronger signals for MMP-2 in stromal cells compared to cancer cells, while stromal fibroblasts interact with cancer cells by secreting and activating MMP-2 (Saad et al., [2002]; Hassona et al., [2014]). […] Thus, the peaks for MAHNP-DOX and one product after cleavage of GLPG-DOX were monitored. […]

BT474 cells [1] = assay: MTT cytotoxicity assay, BT474 cells; format: cell-based, human
Procedure: (§1) The cytotoxicity of MAHNP-DOX was determined using MTT test. Free DOX was used as positive control, and the cells treated with conditioned medium only were considered as negative control. BT474 and SKBR3 cells in exponential growth were seeded in a 96-well plate and incubated for 24 h at 37 °C. Then, a series of dilutions of free DOX and MAHNP-DOX at equivalent concentration were prepared with the conditioned medium and incubated for another 48 h. After an addition of MTT solution (5 mg/ml in PBS) to each well, the cells were incubated for 4 h and lysed in DMSO. Absorbance was determined at 490 nm using an EL ×800 absorbance microplate reader (Biotek, Winooski, VT, USA). The IC50 values were calculated from the linear regression of the dose–log response curves using GraphPad Prism 6 software (GraphPad Software, San Diego, CA, USA).
(§2) To further confirm the dependence of cytotoxicity on MMP-2 activity, NIH-3T3 cells were pre-incubated with 10 μM MMP-2 inhibitor I in serum-free medium for 24 h, and the medium was also collected termed as treated conditioned medium. Following the procedure above, the cytotoxicity of MAHNP-DOX was also determined using this medium.

[2] = Biodistribution in BT474 tumor-bearing mice by fluorescent imaging and HPLC; format: in vivo; details: 4 h after intravenous injection, 5 mg DOX equivalent/kg
Description: Saline was used as negative control.
Daunorubicin (DAU) was used as internal standard.

[3] = Pharmacokinetic profile in plasma of mice; details: intravenous injection, blood 0.083-24 h post injection, LC-MS/MS, n = 3
Procedure: (§3) When the tumor size reached a volume of about 50 mm^3, the mice were randomly divided into three groups (each group consisted of 6 mice) for the treatment with 5 mg DOX equivalent/kg of either free DOX or MAHNP-DOX once every seven days for three times. Saline was used as negative control. The animals’ weight and tumor dimensions were measured every five days. Tumor volume was calculated using an equation: TV =1/2 × a × b^2, where a is the largest diameter and b is the smallest diameter. Each animal was tagged in the ear and followed individually throughout the experiment. For in vivo imaging study, the mice were intravenously injected through the caudal vein by 5 mg DOX equivalent/kg of free DOX and MAHNP-DOX, images were taken on IVIS LuminaXR imaging system (Perkin Elmer, San Diego, CA, USA) at 4 h post injection. Tumors and organ samples including heart, liver, spleen, kidneys and lungs were carefully removed and stored in liquid nitrogen. To assess the pharmacokinetic profile of the drugs, free DOX and MAHNP-DOX were injected intravenously into the mice, respectively. Blood samples were collected at 0.083, 0.25, 0.5, 1, 2, 4, 8, 12 and 24 h post injection.

BT474 xenografts = details: nude mice with BT474 xenografts, 5 mg DOX equivalent/kg once every seven days for three times
Procedure: Eighteen athymic nude mice (Balb/c nu/nu, females) were used. All animal experiments were carried out in accordance with guidelines evaluated and approved by the ethics committee of Nanjing Medical University. BT474 cells were first collected in a concentration of 1 × 10^7/mL and orthotopically injected into the mammary fat pad area of each mouse with 0.1 mL PBS/mouse.
as §3

SKBR3 cells [4] = assay: MTT cytotoxicity assay, SKBR3 cells; format: cell-based, human
Procedure: as §1, §2

SKBR3 cells [5] = assay: TUNEL assay, SKBR3 cells; format: cell-based, human; details: 24 h treatment, n = 3
Procedure: (§4) Transferase-mediated nick-end labeling assay was carried out using the DeadEnd Fluorometric TUNEL system kit (Promega, Madison, WI, USA). […] Images were acquired at room temperature with an inverted fluorescence microscope (Leica, DMI3000B, Wetzlar, Germany).

BT474 cells [6] = assay: TUNEL assay, BT474 cells; format: cell-based, human; details: 24 h treatment, n = 3
Procedure: as §4

[7] = target: human epidermal growth factor receptor family member HER2 (human (endogenous in BT474 and SKBR3)) (UniProt P04626)
[8] = 48 h, in conditioned medium, n = 3, read-out: IC50
[9] = conditioned medium from NIH-3T3 cells pretreated with 10 μM MMP-2 inhibitor I, n = 3, read-out: IC50 with MMP-2 inhibitor pretreatment

T1 sequence (P33434 110-662): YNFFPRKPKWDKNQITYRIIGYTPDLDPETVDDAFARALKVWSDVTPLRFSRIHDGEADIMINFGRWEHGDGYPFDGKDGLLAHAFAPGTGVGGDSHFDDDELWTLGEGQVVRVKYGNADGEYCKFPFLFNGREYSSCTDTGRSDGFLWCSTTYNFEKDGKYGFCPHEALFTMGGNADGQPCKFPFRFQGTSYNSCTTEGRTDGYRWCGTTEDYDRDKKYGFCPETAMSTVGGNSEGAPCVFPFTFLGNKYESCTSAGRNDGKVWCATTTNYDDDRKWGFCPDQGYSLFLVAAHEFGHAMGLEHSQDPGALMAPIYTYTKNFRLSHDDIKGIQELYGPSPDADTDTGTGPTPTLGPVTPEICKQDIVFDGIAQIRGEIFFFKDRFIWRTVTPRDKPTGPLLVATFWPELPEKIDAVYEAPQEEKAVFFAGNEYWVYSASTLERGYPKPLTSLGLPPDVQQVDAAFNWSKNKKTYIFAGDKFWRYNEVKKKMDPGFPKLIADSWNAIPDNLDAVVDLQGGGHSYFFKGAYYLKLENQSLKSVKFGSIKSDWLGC

Q: What does the source list for `COc1cccc2c1C(=O)c1c(O)c3c(c(O)c1C2=O)C[C@@](O)(C(=O)COC(=O)CCCC(=O)NCC(=O)N1CCC[C@H]1C(=O)N[C@@H](CC(C)C)C(=O)NCC(=O)N[C@@H](CC(C)C)C(=O)N[C@@H](C)C(=O)NCC(=O)N[C@@H](CC(=O)O)C(=O)N[C@@H](CC(=O)O)C(=O)N[C@@H](Cc1ccc(O)cc1)C(=O)N[C@H]1CSSC[C@@H](C(=O)N[C@@H](Cc2ccc(O)cc2)C(=O)N[C@@H](CCSC)C(=O)N[C@@H](CC(=O)O)C(=O)N[C@H](C(N)=O)C(C)C)NC(=O)[C@H](C)NC(=O)[C@H](Cc2ccc(O)cc2)NC(=O)[C@H](Cc2ccccc2)NC(=O)CNC(=O)[C@H](CC(=O)O)NC1=O)C[C@@H]3O[C@H]1C[C@H](N)[C@H](O)[C@H](C)O1` [MAHNP-DOX] ({Glutaryl(5-(14-O-Dox))}-GPLGLAGDDYCDGFYACYMDV-NH2; disulfide 11-17)?
A: efficiency of cleavage (MMP-2): 80.8%; IC50 (BT474 cells [1]; [8]): 747 ± 81.5 nM; IC50 (BT474 cells [1]; [9]): 1350 ± 154 nM; drug amount in the tumors compared with free DOX ([2]; fluorescent images confirmed by HPLC, p < .01): significantly higher; drug accumulation in heart, liver, spleen, lung and kidney compared with free DOX ([2]; p < .05): lower; half-life t1/2 in plasma [3]: 17.6 ± 6.4 h; toxicity / body weight change (BT474 xenografts): less weight loss; IC50 (SKBR3 cells [4]; [8]): 110 ± 12.7 nM; IC50 (SKBR3 cells [4]; [9]): 147 ± 16.3 nM

Q: Which IC50 (BT474 cells [1]; [8]) does the source give for `COc1cccc2c1C(=O)c1c(O)c3c(c(O)c1C2=O)C[C@@](O)(C(=O)CO)C[C@@H]3O[C@H]1C[C@H](N)[C@H](O)[C@H](C)O1.Cl` [free DOX, Doxorubicin hydrochloride] here?
A: The IC50 was 2080 ± 368 nM.

Q: And the “half-life t1/2 in plasma” value [3]?
A: Its value is 7.7 ± 1.6 h.

Q: And the “percentage of apoptotic cells” value (SKBR3 cells [5])?
A: Its value is 44.8 ± 2.8%.

Q: What about the tumor growth inhibition (BT474 xenografts; day 25 after treatment) of the same molecule?
A: Its tumor growth inhibition is 53.4 ± 6.6%.

Q: What about the “toxicity / body weight change” value (BT474 xenografts) of the same molecule?
A: The value was “Toxicity was observed”.

Q: And the IC50 (SKBR3 cells [4]; [8])?
A: The IC50 was 173 ± 19.2 nM.

Q: And the “percentage of apoptotic cells” value (BT474 cells [6])?
A: The value was 34.2 ± 2.1%.

Q: With YCDGFYACYMDV-NH2 (disulfide 2-8) [anti-HER2 peptide mimetic AHNP] as the molecule, how does the increase of the cell population in the G1 phase, BT474 cells, 48 h exposure to AHNP (10 μM) alone, flow cytometry [7] read?
A: The increase of the cell population in the G1 phase, BT474 cells, 48 h exposure to AHNP (10 μM) alone, flow cytometry was 6.58%.

Q: And the increase of the cell population in the G1 phase, SKBR3 cells, 48 h exposure to AHNP (10 μM) alone, flow cytometry [7]?
A: Its increase of the cell population in the G1 phase, SKBR3 cells, 48 h exposure to AHNP (10 μM) alone, flow cytometry is 9.95%.
